Measured values published in patent publication US5389621A, “Method of enhancing the anticoagulant effects of aspirin using salicylamide” (University of Medicine and Dentistry of New Jersey, priority 1994, dated 1995).
“Also recorded” adds a separate entry of the source.

Assays:
[1] = Tissue distribution of 14C radioactivity after 14C-salicylamide; format: in vivo, male Sprague-Dawley rats
Experimental: All animals were identified by ear punching. Food and water were provided ad libitum.
Forty-eight rats were divided into two groups.
(§1) Each group consisted of 24 rats and was further divided into 4 subgroups, 6 rats each, according to the following scheme:
(§2) The rats were fasted overnight. The drug(s) were prepared fresh, dissolved in 2.5 ml of deionized water and administered orally by gavage needle. The rats were allowed water ad libitum before and after the oral administration.
The different treatments were given according to the previous scheme and each rat received an amount of radioactivity equal to […] in the case of radioactive aspirin and 10 μCu in the case of radioactive salicylamide. For the low and high dose ASA treatments 3696 and 1848 dpm ^14 C-ASA/μg total ASA were used respectively. For SAM, 24.4 and 12.2 dpm ^14 C-SAM/ng total SAM were utilized for low and high dose treatments, respectively.
The rats were anesthetized by light diethyl ether inhalation.
The rest of the red blood cells were washed twice by adding 2 ml of physiological saline and were resuspended after each addition. The red blood cells were centrifuged at 3000 rpm (1800×g) for 10 minutes and 300 μl were pipetted in a scintillation vial for measurement of ^14 C radioactivity.
(§3) After collecting the blood sample, the rats were sacrificed immediately by a diethyl ether overdose. The following tissues were collected: liver, lung, kidney, heart, spleen, perinephric fat, brain, upper small intestine, stomach, pancreas, bone (femur and tibia), testis, skin and skeletal muscle. A sample of bone marrow was also collected (approximately20 mg).
(§4) 300 mg tissue samples were placed in scintillation vials and 300 μl of 70% perchloric acid and 600 μl of 30% hydrogen peroxide were added to each vial and also to the vials containing the washed red blood cells aliquots. The vials were incubated at 75° C. for 1 hour in a shaking water bath and were tightly capped to prevent any loss of radioactivity by evaporation.
(§5) The vials were left to cool to room temperature for 15 minutes before 10 ml Aquasol-2 scintillation fluid was added to each vial. The total radioactivity was counted in a Beckman model 7500 LS spectrophotometer.

[2] = Tissue distribution of 14C radioactivity after 14C-aspirin; format: in vivo, male Sprague-Dawley rats; details: for Tissue with the highest 14C concentration: 14C-ASA alone or with SAM, low dose
Experimental: Male adult Sprague-Dawley rats (300-325 gm) obtained from Charles River Breeding Laboratory, N. Wilmington, Mass. were quarantined for one week. All animals were identified by ear punching. Food and water were provided ad libitum. The animals were maintained on rodent lab chow diet in a controlled environment with 50% humidity and 12 hour light/dark cycle.
Forty-eight rats were divided into two groups. The first group of rats was administered ASA, SAM or their combination in a dose approximately equal (w/w) to that in the commercially available combinations, e.g., BC® formula, when administered to humans, i.e., 10 and 3 mg/kg of ASA and SAM, respectively. The second group was administered double the dosage received by the first group.
as §1, §2
The different treatments were given according to the previous scheme and each rat received an amount of radioactivity equal to […] in the case of radioactive aspirin and 10 μCu in the case of radioactive salicylamide.
The rats were anesthetized by light diethyl ether inhalation. A blood sample of nearly 3 ml was collected by cardiac puncture 1.5 hours after oral administration. The blood was transferred to chilled polyethylene tubes containing 30 μl of 50% (w/w) potassium fluoride to prevent hydrolysis of ASA. A 300 μl aliquot was pipetted in a scintillation vial to study the distribution in whole blood. The rest of the collected blood was immediately centrifuged at 1800×g for 10 minutes at 4° C. and the plasma was decanted. 100 μl of the plasma were pipetted in a scintillation vial for measurement of the total radioactivity and the rest of the plasma was stored immediately at -70° C. for later study of the distribution of the metabolites.
300 μl of the pellet of red blood cells was pipetted in a scintillation vial to study the distribution in red blood cells. The rest of the red blood cells were washed twice by adding 2 ml of physiological saline and were resuspended after each addition.
as §3, §4, §5

[3] = 1.5 hr, 14C-SAM 3 mg/kg, alone or with ASA 10 mg/kg
[4] = 1.5 hr, 14C-SAM 6 mg/kg, alone or with ASA 20 mg/kg
[5] = 1.5 hr, 14C-ASA 10 mg/kg, alone or with SAM 3 mg/kg
[6] = 1.5 hr, 14C-ASA 20 mg/kg, alone or with SAM 6 mg/kg

## CC(=O)Oc1ccccc1C(=O)O [ASA, acetylsalicylic acid]
[1]; 14C-SAM/ASA 3/10 mg/kg vs 14C-SAM alone
  Change of tissue 14C in RBCs, bone, fat, skin, muscle, heart and others: enhanced the tissue concentration; also recorded: significant elevation
[1]; 14C-SAM/ASA high dose vs 14C-SAM alone, liver, lung, RBCs, and muscle or heart
  Change of tissue 14C, high dose: significantly augmented

## NC(=O)c1ccccc1O [SAM, Salicylamide]
[2]; 14C-ASA 20 mg/kg with SAM 6 mg/kg vs 14C-ASA alone
  Change of 14C distribution in plasma, skin, testis and brain: significant increase
[2]; 1.5 hr
  Tissue with the highest 14C concentration: plasma attained the highest concentration
[2]; 1.5 hr, 14C-ASA/SAM 10/3 mg/kg vs 14C-ASA 10 mg/kg
  Change of 14C activity in stomach (gastric mucosa): lower concentration of ^14 C radioactivity
[2]; SAM with 14C-ASA
  Change of 14C radioactivity and 14C-SA in plasma, liver and lung: discernable and parallel increase

## N[14C](=O)c1ccccc1O [^14 C-SAM]
[1]; 14C-SAM alone or with ASA, low or high dose
  Organs with the highest 14C concentration: kidney followed by the stomach
[1]; [3]
  14C radioactivity in RBCs: 103 ± 9 ngm/gm tissu
  14C radioactivity in blood: 146 ± 20 ngm/gm tissu
  14C radioactivity in bone: 60 ± 7 ngm/gm tissu
  14C radioactivity in bone marrow: 14 ± 2 ngm/50 mg bone marrow
  14C radioactivity in brain: 27 ± 5 ngm/gm tissu
  14C radioactivity in fat: 41 ± 8 ngm/gm tissu
  14C radioactivity in heart: 44 ± 5 ngm/gm tissu
  14C radioactivity in kidney: 665 ± 152 ngm/gm tissu
  14C radioactivity in liver: 100 ± 12 ngm/gm tissu
  14C radioactivity in lung: 91 ± 11 ngm/gm tissu
  14C radioactivity in muscle: 56 ± 7 ngm/gm tissu
  14C radioactivity in pancreas: 93 ± 9 ngm/gm tissu
  14C radioactivity in plasma: 147 ± 24 ngm/gm tissu
  14C radioactivity in skin: 107 ± 10 ngm/gm tissu
  14C radioactivity in spleen: 83 ± 20 ngm/gm tissu
  14C radioactivity in stomach: 550 ± 154 ngm/gm tissu
  14C radioactivity in testis (printed TESUIS): 63 ± 7 ngm/gm tissu
  14C radioactivity in upper small intestine: 130 ± 27 ngm/gm tissu
  14C radioactivity in washed RBCs: 77 ± 10 ngm/gm tissu
[1]; [4]
  14C radioactivity in RBCs: 118 ± 22 ngm/gm tissu
  14C radioactivity in blood: 198 ± 32 ngm/gm tissu
  14C radioactivity in bone: 153 ± 38 ngm/gm tissu
  14C radioactivity in bone marrow: 29 ± 17 ngm/50 mg bone marrow
  14C radioactivity in brain: 33 ± 1 ngm/gm tissu
  14C radioactivity in fat: 130 ± 14 ngm/gm tissu
  14C radioactivity in heart: 106 ± 10 ngm/gm tissu
  14C radioactivity in kidney: 1358 ± 441 ngm/gm tissu
  14C radioactivity in liver: 136 ± 12 ngm/gm tissu
  14C radioactivity in lung: 218 ± 12 ngm/gm tissu
  14C radioactivity in muscle: 78 ± 3 ngm/gm tissu
  14C radioactivity in pancreas: 147 ± 9 ngm/gm tissu
  14C radioactivity in plasma: 237 ± 49 ngm/gm tissu
  14C radioactivity in skin: 240 ± 11 ngm/gm tissu
  14C radioactivity in spleen: 200 ± 26 ngm/gm tissu
  14C radioactivity in stomach: 832 ± 217 ngm/gm tissu
  14C radioactivity in testis: 155 ± 17 ngm/gm tissu
  14C radioactivity in upper small intestine: 268 ± 34 ngm/gm tissu
  14C radioactivity in washed RBCs: 92 ± 12 ngm/gm tissu

## CC(=O)Oc1ccccc1[14C](=O)O [^14 C-ASA]
[2]; [5]
  14C radioactivity in RBCs: 4.2 ± 1.2 μg/gm tissue
  14C radioactivity in blood: 17.1 ± 3.1 μg/gm tissue
  14C radioactivity in bone: 2.7 ± 0.08 μg/gm tissue
  14C radioactivity in bone marrow: 0.24 ± 0.05 μg/50 mg of bone marrow
  14C radioactivity in brain: 1.5 ± 0.1 μg/gm tissue
  14C radioactivity in fat: 3.3 ± 0.1 μg/gm tissue
  14C radioactivity in heart: 5.6 ± 0.5 μg/gm tissue
  14C radioactivity in kidney: 15.1 ± 0.9 μg/gm tissue
  14C radioactivity in liver: 7.9 ± 0.9 μg/gm tissue
  14C radioactivity in lung: 7.3 ± 0.5 μg/gm tissue
  14C radioactivity in muscle: 3.5 ± 0.2 μg/gm tissue
  14C radioactivity in pancreas: 5.7 ± 0.4 μg/gm tissue
  14C radioactivity in plasma: 35.5 ± 1.7 μg/gm tissue
  14C radioactivity in skin: 8.9 ± 0.4 μg/gm tissue
  14C radioactivity in spleen: 2.9 ± 0.6 μg/gm tissue
  14C radioactivity in stomach: 18.9 ± 3.3 μg/gm tissue
  14C radioactivity in testis: 5.1 ± 0.5 μg/gm tissue
  14C radioactivity in upper small intestine: 5.8 ± 0.6 μg/gm tissue
  14C radioactivity in washed RBCs: 1.5 ± 0.5 μg/gm tissue
[2]; [6]
  14C radioactivity in RBCs: 8.8 ± 1.2 μgm/gm tissue
  14C radioactivity in blood: 36.1 ± 3.5 μgm/gm tissue
  14C radioactivity in bone: 7.1 ± 0.6 μgm/gm tissue
  14C radioactivity in bone marrow: 0.79 ± 0.03 μgm/50 mg bone marrow
  14C radioactivity in brain: 4.1 ± 0.07 μgm/gm tissue
  14C radioactivity in fat: 4.5 ± 0.3 μgm/gm tissue
  14C radioactivity in heart: 17.5 ± 0.5 μgm/gm tissue
  14C radioactivity in kidney: 32.0 ± 3.2 μgm/gm tissue
  14C radioactivity in liver: 19.7 ± 0.9 μgm/gm tissue
  14C radioactivity in lung: 19.3 ± 0.7 μgm/gm tissue
  14C radioactivity in muscle: 9.5 ± 0.4 μgm/gm tissue
  14C radioactivity in pancreas: 12.6 ± 0.5 μgm/gm tissue
  14C radioactivity in plasma: 65.1 ± 1.91 μgm/gm tissue
  14C radioactivity in skin: 21.9 ± 0.6 μgm/gm tissue
  14C radioactivity in spleen: 10.0 ± 0.9 μgm/gm tissue
  14C radioactivity in stomach: 22.9 ± 4.6 μgm/gm tissue
  14C radioactivity in testis: 14.1 ± 0.6 μgm/gm tissue
  14C radioactivity in upper small intestine: 15.1 ± 1.0 μgm/gm tissue
  14C radioactivity in washed RBCs: 3.8 ± 0.9 μgm/gm tissue
[2]; 1.5 hr
  Tissue with the highest 14C concentration: plasma attained the highest concentration
